Values of other authors in patent US20240016871A1, “Non-toxic furocoumarin-rich plant extracts and related compositions for use as antimicrobial substance or medicament and other therapeutic uses” (ICE-P LIFE, S.L., priority 2020, published 2024).

Legend:
p53 knockout mouse = settings: platelets treated with amotosalen, after filtration and removal of amotosalen conjugated with pathogens
DBA/2 strain mice = settings: single oral doses

Cc1oc2c(C)c3oc(=O)cc(C)c3cc2c1COCCN.Cl [amotosalen, amotosalen HCl]
carcinogenicity (p53 knockout mouse): non-carcinogenic

O=c1ccc2ccccc2o1 [coumarin]
liver necrosis (DBA/2 strain mice): produce liver necrosis
